Data taken from patent US8895069B2, “Drug delivery system using hyaluronic acid-peptide conjugate micelle” (Postech Academy-Industry Foundation, priority 2011, dated 2014).
Ends that are not written are not given here.

System: retinal blood vessel
Test: Electron microscopy of retinal blood vessel in diabetic retinopathy
Assay type: in vivo, Sprague Dawley (SD) male rats
Settings: diabetic retinopathy rats

Substance: GGNQWFI [anti-Flt1 peptide, GGNQWFI]
- structure of the retinal blood vessel (electron microscope): the blood vessel had a rounded shape although the endothelial cell layer was thin
